Assay results reported in ChEMBL document CHEMBL5303573, “Mapping human microbiome drug metabolism by gut bacteria and their genes” (Nature, 2019).

Columns and labels:
[1] = The drug is tested on Collinsella intestinalis strain: DSM13280 for biotransformation. The drug concentrations were measured before and after a 12-h incubation by liquid-chromatography-coupled mass spectrometry (LC–MS); conditions: 2 µM
[2] = The drug is tested on Alistipes indistinctus strain: DSM22520 for biotransformation. The drug concentrations were measured before and after a 12-h incubation by liquid-chromatography-coupled mass spectrometry (LC–MS); conditions: 2 µM
[3] = The drug is tested on Bacteroides caccae strain: ATCC43185 for biotransformation. The drug concentrations were measured before and after a 12-h incubation by liquid-chromatography-coupled mass spectrometry (LC–MS); conditions: 2 µM
[4] = The drug is tested on Bacteroides coprophilus strain: DSM18228 for biotransformation. The drug concentrations were measured before and after a 12-h incubation by liquid-chromatography-coupled mass spectrometry (LC–MS); conditions: 2 µM
[5] = The drug is tested on Bacteroides finegoldii strain: DSM17565 for biotransformation. The drug concentrations were measured before and after a 12-h incubation by liquid-chromatography-coupled mass spectrometry (LC–MS); conditions: 2 µM
[6] = The drug is tested on Bacteroides sp. WH2 strain: WH2 for biotransformation. The drug concentrations were measured before and after a 12-h incubation by liquid-chromatography-coupled mass spectrometry (LC–MS); conditions: bacteroides sp. wh2, 12 h, 2 µM
[7] = The drug is tested on Blautia luti strain: DSM14534 for biotransformation. The drug concentrations were measured before and after a 12-h incubation by liquid-chromatography-coupled mass spectrometry (LC–MS); format: ADME; parameters: dose 2 uM, timepoint 0 vs 12 hours; conditions: 2 µM
[8] = The drug is tested on Clostridium asparagiforme strain: DSM15981 for biotransformation. The drug concentrations were measured before and after a 12-h incubation by liquid-chromatography-coupled mass spectrometry (LC–MS); format: ADME; parameters: dose 2 uM, timepoint 0 vs 12 hours; conditions: enterocloster asparagiformis, 2 µM
[9] = The drug is tested on Enterococcus faecalis strain: V583 for biotransformation. The drug concentrations were measured before and after a 12-h incubation by liquid-chromatography-coupled mass spectrometry (LC–MS); conditions: 2 µM
[10] = The drug is tested on Eubacterium rectale strain: ATCC33656 for biotransformation. The drug concentrations were measured before and after a 12-h incubation by liquid-chromatography-coupled mass spectrometry (LC–MS); conditions: agathobacter rectalis, 2 µM
[11] = The drug is tested on Enterobacter cancerogenus strain: ATCC35316 for biotransformation. The drug concentrations were measured before and after a 12-h incubation by liquid-chromatography-coupled mass spectrometry (LC–MS); conditions: 2 µM
[12] = bacteroides fragilis, 12 h, 2 µM
Description: The drug is tested on Bacteroides fragilis strain: 3397 (T10) for biotransformation. The drug concentrations were measured before and after a 12-h incubation by liquid-chromatography-coupled mass spectrometry (LC–MS)

[13] = bacteroides intestinalis, 12 h, 2 µM
Description: The drug is tested on Bacteroides intestinalis strain: DSM17393 for biotransformation. The drug concentrations were measured before and after a 12-h incubation by liquid-chromatography-coupled mass spectrometry (LC–MS)

[14] = bacteroides stercoris, 12 h, 2 µM
Description: The drug is tested on Bacteroides stercoris strain: ATCC43183 for biotransformation. The drug concentrations were measured before and after a 12-h incubation by liquid-chromatography-coupled mass spectrometry (LC–MS)

[15] = bacteroides thetaiotaomicron, 12 h, 2 µM
Description: The drug is tested on Bacteroides thetaiotaomicron strain: 3731 for biotransformation. The drug concentrations were measured before and after a 12-h incubation by liquid-chromatography-coupled mass spectrometry (LC–MS)

[16] = bacteroides thetaiotaomicron, 12 h, 2 µM; remark: listed apart in the source
Description: The drug is tested on Bacteroides thetaiotaomicron strain: 7330 for biotransformation. The drug concentrations were measured before and after a 12-h incubation by liquid-chromatography-coupled mass spectrometry (LC–MS)

[17] = limosilactobacillus reuteri cf48-3a, 12 h, 2 µM
Description: The drug is tested on Lactobacillus reuteri CF48-3A strain: BEI HM-102 for biotransformation. The drug concentrations were measured before and after a 12-h incubation by liquid-chromatography-coupled mass spectrometry (LC–MS)

[18] = The drug is tested on Anaerotruncus colihominis strain: DSM17241 for biotransformation. The drug concentrations were measured before and after a 12-h incubation by liquid-chromatography-coupled mass spectrometry (LC–MS); conditions: 2 µM
[19] = The drug is tested on Edwardsiella tarda strain: ATCC23685 for biotransformation. The drug concentrations were measured before and after a 12-h incubation by liquid-chromatography-coupled mass spectrometry (LC–MS); conditions: 2 µM
[20] = bacteroides fragilis, 12 h, 2 µM; remark: listed apart in the source
Description: The drug is tested on Bacteroides fragilis strain: DS-208 for biotransformation. The drug concentrations were measured before and after a 12-h incubation by liquid-chromatography-coupled mass spectrometry (LC–MS)

| SMILES | Bacterial Biotransformation [1] | Bacterial Biotransformation [2] | Bacterial Biotransformation [3] | Bacterial Biotransformation [4] | Bacterial Biotransformation [5] | Bacterial Biotransformation [6] | Bacterial Biotransformation [7] | Bacterial Biotransformation [8] | Bacterial Biotransformation [9] | Bacterial Biotransformation [10] | Bacterial Biotransformation [11] | Bacterial Biotransformation [12] | Bacterial Biotransformation [13] | Bacterial Biotransformation [14] | Bacterial Biotransformation [15] | Bacterial Biotransformation [16] | Bacterial Biotransformation [17] | Bacterial Biotransformation [18] | Bacterial Biotransformation [19] | Bacterial Biotransformation [20] |
| --- | --- | --- | --- | --- | --- | --- | --- | --- | --- | --- | --- | --- | --- | --- | --- | --- | --- | --- | --- | --- |
| C[C@@H]1C[C@H]2[C@@H]3CCC4=CC(=O)C=C[C@]4(C)[C@@]3(F)[C@@H](O)C[C@]2(C)[C@@]1(O)C(=O)CO [DEXAMETHASONE] | Compound NOT metabolized | Compound NOT metabolized | Compound NOT metabolized | Compound NOT metabolized | Compound NOT metabolized | Compound NOT metabolized | Compound NOT metabolized | Compound NOT metabolized | Compound NOT metabolized | Compound NOT metabolized | Compound NOT metabolized | – | Compound NOT metabolized | Compound metabolized | Compound NOT metabolized | – | – | – | Compound NOT metabolized | Compound metabolized |
| CC12CC3CC(C)(C1)CC(N)(C3)C2 [MEMANTINE] | Compound NOT metabolized | – | Compound NOT metabolized | Compound NOT metabolized | Compound NOT metabolized | Compound NOT metabolized | Compound NOT metabolized | Compound NOT metabolized | Compound NOT metabolized | – | Compound NOT metabolized | Compound NOT metabolized | Compound NOT metabolized | Compound NOT metabolized | Compound NOT metabolized | Compound NOT metabolized | – | Compound NOT metabolized | Compound NOT metabolized | Compound NOT metabolized |
| CCc1nc(N)nc(N)c1-c1ccc(Cl)cc1 [PYRIMETHAMINE] | Compound NOT metabolized | Compound NOT metabolized | Compound NOT metabolized | Compound NOT metabolized | Compound NOT metabolized | Compound NOT metabolized | Compound NOT metabolized | Compound NOT metabolized | Compound NOT metabolized | – | Compound NOT metabolized | Compound NOT metabolized | Compound NOT metabolized | Compound NOT metabolized | Compound NOT metabolized | Compound NOT metabolized | Compound NOT metabolized | Compound NOT metabolized | Compound NOT metabolized | Compound NOT metabolized |
| CC(C)(C)NC[C@H](O)COc1ccccc1C1CCCC1.CC(C)(C)NC[C@H](O)COc1ccccc1C1CCCC1.O=S(=O)(O)O [PENBUTOLOL SULFATE] | Compound NOT metabolized | Compound NOT metabolized | Compound NOT metabolized | – | Compound NOT metabolized | Compound NOT metabolized | Compound NOT metabolized | Compound NOT metabolized | Compound NOT metabolized | Compound NOT metabolized | – | – | Compound NOT metabolized | Compound NOT metabolized | Compound NOT metabolized | Compound NOT metabolized | Compound NOT metabolized | Compound NOT metabolized | Compound NOT metabolized | – |

Other lines, results leading:

| Bacterial Biotransformation [1] | Bacterial Biotransformation [2] | Bacterial Biotransformation [3] | Bacterial Biotransformation [4] | Bacterial Biotransformation [5] | Bacterial Biotransformation [6] | Bacterial Biotransformation [7] | Bacterial Biotransformation [8] | Bacterial Biotransformation [9] | Bacterial Biotransformation [10] | Bacterial Biotransformation [11] | Bacterial Biotransformation [12] | Bacterial Biotransformation [13] | Bacterial Biotransformation [14] | Bacterial Biotransformation [15] | Bacterial Biotransformation [16] | Bacterial Biotransformation [17] | Bacterial Biotransformation [18] | Bacterial Biotransformation [19] | Bacterial Biotransformation [20] | SMILES |
| --- | --- | --- | --- | --- | --- | --- | --- | --- | --- | --- | --- | --- | --- | --- | --- | --- | --- | --- | --- | --- |
| Compound NOT metabolized | Compound NOT metabolized | Compound NOT metabolized | Compound NOT metabolized | Compound NOT metabolized | Compound NOT metabolized | Compound NOT metabolized | Compound NOT metabolized | Compound NOT metabolized | Compound NOT metabolized | Compound NOT metabolized | Compound NOT metabolized | Compound NOT metabolized | Compound NOT metabolized | Compound NOT metabolized | Compound NOT metabolized | Compound NOT metabolized | – | – | – | OC(c1cc(C(F)(F)F)nc2c(C(F)(F)F)cccc12)C1CCCCN1 (configuration not stated) [MEFLOQUINE] |
| Compound NOT metabolized | – | – | – | Compound metabolized | Compound NOT metabolized | – | Compound NOT metabolized | Compound NOT metabolized | Compound NOT metabolized | Compound NOT metabolized | – | – | Compound metabolized | Compound metabolized | Compound metabolized | Compound metabolized | Compound NOT metabolized | Compound NOT metabolized | Compound metabolized | CCCCC(=O)O[C@]1(C(=O)CO)[C@@H](C)C[C@H]2[C@@H]3CCC4=CC(=O)C=C[C@]4(C)[C@@]3(F)[C@@H](O)C[C@@]21C [BETAMETHASONE VALERATE] |
| Compound NOT metabolized | – | Compound NOT metabolized | – | Compound NOT metabolized | Compound NOT metabolized | Compound NOT metabolized | Compound NOT metabolized | Compound NOT metabolized | – | Compound NOT metabolized | Compound NOT metabolized | Compound NOT metabolized | Compound NOT metabolized | – | Compound NOT metabolized | Compound NOT metabolized | Compound NOT metabolized | Compound NOT metabolized | Compound NOT metabolized | CC(C)(C)NCC(O)COc1cccc2c1CC(O)C(O)C2 (configuration not stated) [NADOLOL] |
| – | Compound NOT metabolized | Compound metabolized | – | Compound metabolized | – | – | Compound metabolized | Compound NOT metabolized | – | Compound NOT metabolized | – | Compound metabolized | – | – | – | Compound NOT metabolized | Compound NOT metabolized | Compound NOT metabolized | – | COc1c2occc2cc2ccc(=O)oc12 [METHOXSALEN] |
| Compound NOT metabolized | Compound NOT metabolized | Compound NOT metabolized | Compound NOT metabolized | Compound NOT metabolized | – | Compound NOT metabolized | Compound NOT metabolized | Compound NOT metabolized | Compound NOT metabolized | Compound NOT metabolized | Compound NOT metabolized | Compound NOT metabolized | Compound NOT metabolized | Compound NOT metabolized | Compound metabolized | – | Compound NOT metabolized | Compound NOT metabolized | – | O=C(NC(Cc1cc(=O)[nH]c2ccccc12)C(=O)O)c1ccc(Cl)cc1 (configuration not stated) [REBAMIPIDE] |
